Results as given in ChEMBL document CHEMBL1154744, “HIV-1 protease inhibitors with a transition-state mimic comprising a tertiary alcohol: improved antiviral activity in cells” (J Med Chem, 2010).

Key:
[1] = tested on: Human immunodeficiency virus 1; assay: Antiviral activity against HIV1 infected in human MT4 cells assessed as inhibition of virus-induced cytopathogenicity after 6 days by XTT assay; type: functional, organism-based; settings: Human immunodeficiency virus 1, MT4, 144 h
[2] = Cytotoxicity against human MT4 cells assessed as decrease in cell proliferation after 5 days by XTT assay; type: cell-based
[3] = target: Protease (Human immunodeficiency virus 1, UniProt Q9YQ12); assay: Inhibition of HIV1 protease expressed in Escherichia coli by fluorometric assay
Protease, sequence (Q9YQ12 whole entry): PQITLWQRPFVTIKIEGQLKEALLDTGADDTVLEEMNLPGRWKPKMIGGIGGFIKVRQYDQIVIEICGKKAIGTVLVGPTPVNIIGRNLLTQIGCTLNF

[4] = Metabolic stability in liver microsomes assessed as intrinsic clearance; type: ADME, Microsome
[5] = tested on: Human immunodeficiency virus 1; assay: Antiviral activity against […] HIV1 with protease A71V, I84V L90M mutant by cell free assay; type: functional, organism-based
[6] = Apparent permeability across human Caco-2 cells; type: ADME, cell-based
[7] = tested on: Human immunodeficiency virus 1; assay: Antiviral activity against HIV1 with protease V32I, M46I A71V, V82A mutant by cell free assay; type: functional, organism-based
[8] = tested on: Human immunodeficiency virus 1; assay: Antiviral activity against HIV1 with protease M46I, V82F, I84V mutant by cell free assay; type: functional, organism-based
[9] = tested on: Human immunodeficiency virus 1; assay: Antiviral activity against HIV1 with protease V32I, M46I V82A mutant by cell free assay; type: functional, organism-based
[10] = target: Human immunodeficiency virus type 1 protease (Human immunodeficiency virus 1, UniProt Q72874, I84V/L63P/V82T); assay: Inhibition of HIV1 protease L63P, V82T, I84V mutant
Human immunodeficiency virus type 1 protease, sequence (Q72874 entry or part of it I84V/L63P/V82T): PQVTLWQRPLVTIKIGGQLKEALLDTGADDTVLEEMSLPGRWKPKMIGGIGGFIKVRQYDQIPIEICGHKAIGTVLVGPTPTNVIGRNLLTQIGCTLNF

[11] = tested on: Human immunodeficiency virus 1; assay: Antiviral activity against HIV1 with protease G48V, L90M mutant by cell free assay; type: functional, organism-based

| Compound | Ki [3] | EC50 [1] | CC50 at 120 h [2] | also measured |
| --- | --- | --- | --- | --- |
| CC(C)CN(C[C@@H](O)[C@H](Cc1ccccc1)NC(=O)O[C@H]1CO[C@H]2OCC[C@H]21)S(=O)(=O)c1ccc(N)cc1 |  | 4 nM |  |  |
| COC(=O)N[C@H](C(=O)N(Cc1ccc(Br)cc1)C[C@@](O)(Cc1ccccc1)C(=O)N[C@H]1c2ccccc2C[C@H]1O)C(C)(C)C |  | > 10000 nM | > 10000 nM |  |
| COC(=O)N[C@H](C(=O)NN(Cc1ccccc1)C[C@](O)(Cc1ccccc1)C(=O)N[C@H]1c2ccccc2C[C@H]1O)C(C)(C)C | > 5000 nM | > 10000 nM |  |  |
| COC(=O)N[C@H](C(=O)NN(Cc1ccc(-c2cccnc2)cc1)C[C@@](O)(Cc1ccccc1)C(=O)N[C@H]1c2ccccc2C[C@H]1O)C(C)(C)C |  |  | > 10000 nM | clearance [4]: 154 µL/min/mg |
| COC(=O)N[C@H](C(=O)NN(Cc1ccccc1)C[C@@](O)(Cc1ccccc1)C(=O)N[C@H]1c2ccccc2C[C@H]1O)C(C)(C)C | > 5000 nM | > 10000 nM |  |  |
| CC(C)(C)NC(=O)[C@@H]1CN(Cc2cccnc2)CCN1C[C@@H](O)C[C@@H](Cc1ccccc1)C(=O)N[C@H]1c2ccccc2C[C@H]1O |  | 50 nM |  |  |
| CNC(=O)[C@@H](NC(=O)[C@](O)(CCN(Cc1ccc(Br)cc1)NC(=O)[C@@H](NC(=O)OC)C(C)(C)C)Cc1ccccc1)C(C)(C)C | 2200 nM | > 10000 nM | > 10000 nM |  |
| CNC(=O)[C@@H](NC(=O)[C@@](O)(CCN(Cc1ccc(Br)cc1)NC(=O)[C@@H](NC(=O)OC)C(C)(C)C)Cc1ccccc1)C(C)C | 2.9 nM | 160 nM | > 10000 nM |  |
| COCCNC(=O)[C@@H](NC(=O)[C@@](O)(CCN(Cc1ccc(Br)cc1)NC(=O)[C@@H](NC(=O)OC)C(C)(C)C)Cc1ccccc1)C(C)C | 3.2 nM | 170 nM | > 10000 nM |  |
| COC(=O)N[C@H](C(=O)NN(CC[C@@](O)(Cc1ccccc1)C(=O)N[C@H]1c2ccccc2C[C@H]1O)Cc1ccc(Br)cc1)C(C)(C)C | 2.9 nM | 40 nM | 7900 nM | clearance [4]: > 300 µL/min/mg; EC50 [5]: 44 nM; Papp [6]: 42 ×10⁻⁶ cm/s; EC50 [7]: 70 nM; EC50 [8]: 240 nM; EC50 [9]: 74 nM; Ki [10]: 30 nM; EC50 [11]: 8 nM |
| CNC(=O)[C@@H](NC(=O)[C@@](O)(CCN(Cc1ccc(Br)cc1)NC(=O)[C@@H](NC(=O)OC)C(C)(C)C)Cc1ccccc1)C(C)(C)C | 1.7 nM | 72 nM | > 10000 nM |  |
| CNC(=O)[C@@H](NC(=O)[C@](O)(CCN(Cc1ccc(Br)cc1)NC(=O)[C@@H](NC(=O)OC)C(C)(C)C)Cc1ccccc1)C(C)C | 1240 nM | > 10000 nM | > 10000 nM |  |
| COC(=O)N[C@H](C(=O)NN(CC[C@@](O)(Cc1ccccc1)C(=O)N[C@H]1c2ccccc2C[C@H]1O)Cc1ccc(-c2ccccn2)cc1)C(C)(C)C |  | 7 nM | > 10000 nM | clearance [4]: 20 µL/min/mg; EC50 [5]: 7 nM; Papp [6]: 3.5 ×10⁻⁶ cm/s; EC50 [7]: 6 nM; EC50 [8]: 130 nM; EC50 [9]: 24 nM; EC50 [11]: 8 nM |
| COC(=O)N[C@H](C(=O)NN(CC[C@@](O)(Cc1ccccc1)C(=O)N[C@H]1c2ccccc2C[C@H]1O)Cc1ccc(-c2cccnc2)cc1)C(C)(C)C | 1.2 nM | 9 nM | 4900 nM | clearance [4]: > 300 µL/min/mg; EC50 [5]: 19 nM; Papp [6]: 26 ×10⁻⁶ cm/s; EC50 [7]: 14 nM; EC50 [8]: 600 nM; EC50 [9]: 27 nM; Ki [10]: 16 nM; EC50 [11]: 10 nM |
| COC(=O)N[C@H](C(=O)NN(CCc1ccccc1)CC[C@@](O)(Cc1ccccc1)C(=O)N[C@H]1c2ccccc2C[C@H]1O)C(C)(C)C | 8.2 nM | 6800 nM |  |  |
| COCCNC(=O)[C@@H](NC(=O)[C@](O)(CCN(Cc1ccc(Br)cc1)NC(=O)[C@@H](NC(=O)OC)C(C)(C)C)Cc1ccccc1)C(C)C | 2750 nM | > 10000 nM | > 10000 nM |  |
| COC(=O)N[C@H](C(=O)N[C@@H](Cc1ccccc1)[C@@H](O)CN(Cc1ccc(-c2ccccn2)cc1)NC(=O)[C@@H](NC(=O)OC)C(C)(C)C)C(C)(C)C [ATAZANAVIR] | 0.5 nM |  |  |  |
| Cc1cccc(C)c1OCC(=O)N[C@@H](Cc1ccccc1)[C@@H](O)C[C@H](Cc1ccccc1)NC(=O)[C@H](C(C)C)N1CCCNC1=O [LOPINAVIR] |  | 10 nM |  |  |
| CC(C)c1nc(CN(C)C(=O)N[C@H](C(=O)N[C@@H](Cc2ccccc2)C[C@H](O)[C@H](Cc2ccccc2)NC(=O)OCc2cncs2)C(C)C)cs1 [RITONAVIR] |  | 50 nM |  |  |

The next lines start with results.

| Ki [3] | Compound | EC50 [1] | CC50 at 120 h [2] | also measured |
| --- | --- | --- | --- | --- |
| > 5000 nM | COC(=O)N[C@H](C(=O)NN(CC[C@](O)(Cc1ccccc1)C(=O)N[C@H]1c2ccccc2C[C@H]1O)Cc1ccc(Br)cc1)C(C)(C)C | > 10000 nM | > 10000 nM |  |
| 1.8 nM | COC(=O)N[C@H](C(=O)NN(CC[C@@](O)(Cc1ccccc1)C(=O)N[C@H]1c2ccccc2C[C@H]1O)Cc1ccc(-c2ccc(NC(C)=O)cc2)cc1)C(C)(C)C | 30 nM | > 10000 nM |  |
| 1.7 nM | COC(=O)N[C@H](C(=O)NN(CC[C@@](O)(Cc1ccccc1)C(=O)N[C@H]1c2ccccc2C[C@H]1O)Cc1ccc(-c2cnn(C)c2)cc1)C(C)(C)C | 10 nM | > 10000 nM |  |
| 8 nM | COC(=O)N[C@H](C(=O)NN(CC[C@@](O)(Cc1ccccc1)C(=O)N[C@H]1c2ccccc2C[C@H]1O)Cc1ccc(-c2ccc3c(c2)OCO3)cc1)C(C)(C)C | 3 nM | 6100 nM |  |
| 12 nM | COC(=O)N[C@H](C(=O)NN(CC[C@@](O)(Cc1ccccc1)C(=O)N[C@H]1c2ccccc2C[C@H]1O)Cc1ccc(-c2ccccc2)cc1)C(C)(C)C | 8 nM | > 10000 nM |  |
| 2.3 nM | COC(=O)N[C@H](C(=O)NN(CC[C@@](O)(Cc1ccccc1)C(=O)N[C@H]1c2ccccc2C[C@H]1O)Cc1ccc(-c2ccncc2)cc1)C(C)(C)C | 3 nM | > 10000 nM |  |
| 11 nM | COC(=O)N[C@H](C(=O)NN(CC[C@@](O)(Cc1ccccc1)C(=O)N[C@H]1c2ccccc2C[C@H]1O)Cc1ccc(-c2cc(F)cc(F)c2)cc1)C(C)(C)C | 13 nM | > 10000 nM |  |
| 2.8 nM | COC(=O)N[C@H](C(=O)NN(CC[C@@](O)(Cc1ccccc1)C(=O)N[C@H]1c2ccccc2C[C@H]1O)Cc1ccc(-c2c(C)noc2C)cc1)C(C)(C)C | 5 nM | > 10000 nM |  |
| 2.3 nM | COC(=O)N[C@H](C(=O)NN(CC[C@@](O)(Cc1ccccc1)C(=O)N[C@H]1c2ccccc2C[C@H]1O)Cc1ccccc1)C(C)(C)C | 190 nM | > 10000 nM |  |
